According to US20070254882A1, “Sulfamide Derivatives and Pharmaceutical Composition for Upregulation of Lipid Metabolism Comprising Same” (CRYSTAL GENOMICS, INC., priority 2004, published 2007):

Tests used:
ob/ob mice [1] = assay: Anti-obesity test: lipid metabolism-related materials and glucose in blood of ob/ob mice; type: in vivo; settings: 28 days; for GLU (glucose) / HDL (HDL-cholesterol) / LDL (LDL-cholesterol) / NEFA (free fatty acid) / TG (triglyceride): 100 mg/kg oral twice a day, fasted 16 hours, plasma
Protocol: (§1) In order to evaluate the anti-obesity activity of the inventive compound, B6.V-Lepob/J mice (laboratory animal team of Korea Research Institute of Chemical Technology) were used for tests and lean mice as a control. Ob/ob mice are model animals for insulin-independent diabetes, suitable for studying the effect of an anti-obesity drug.
(§2) 42 mice weighing 38.6±1.4 g were selected randomly from a pool of ob/ob mice (7-9 weeks old), and divided into groups of 7 mice each. The test was carried out at a constant temperature (24±0.5° C.) and humidity (55±5%) using ventilation system (10-12 times/hour), under a specific pathogen free (SPF) condition created in an automatic on-off cycle of 12 hours.
(§3) The groups were divided to a control group treated only with an excipient, a positive control group treated with fenofibrate, and test groups treated with each of the compounds of Examples 5, 62 and 65, at dosage 100 mg/10 ml/kg body weight. Each of the test and control compounds was diluted with 0.5% CMC to a concentration to match the above dosage, and administered orally using a syringe into the stomach twice a day (9:00 and 18:00) for a period of 4 weeks, and the following characteristics were measured.
3) Measurement of Lipid Metabolism-Related Materials and Insulin Concentration in Blood
28 days after the administration, experimental mice were fasted for 16 hours, and the concentrations of lipid metabolism-related materials such as triglyceride, free fatty acid and cholesterol, and insulin in blood were measured. Specifically, a blood sample was collected from the ocular venous plexus of each mouse and centrifuged to separate plasma. The glucose (GLU), HDL-cholesterol (HDL), LDL-cholesterol (LDL), triglyceride (TG) and free fatty acid (NEFA) levels were measured by enzymatic assay using 2 kinds of Selectra (Vital Lab), an automatic biochemical analyzer, and the insulin concentration was measured by ELISA using an insulin detection kit (Shibayagi).

ob/ob mice [2] = assay: Oral glucose tolerance test (OGTT) in ob/ob mice; type: in vivo; settings: for total changes in the glucose concentration represented by AUC compared to the control group / glucose concentration at 30 and 60 min after the glucose administration compared to the control group: 2 g/kg glucose; for total changes in the glucose concentration represented by AUC compared to the control group: 0-120 min, P<0.05, P<0.005 and P<0.01, FIG. 3b; for glucose concentration at 30 and 60 min after the glucose administration compared to the control group: P<0.01, P<0.05, FIG. 3a; for glucose concentration during the fast compared to the control group: ob/ob mice, 28 days, fasted 16 hours, P<0.05, FIG. 3c
Protocol: as §1, §2, §3
4) Oral Glucose Tolerance Test (OGTT)
28 days after the administration, each of the experimental mice was fasted for 16 hours, 2 g/kg of glucose was administered thereto, a blood sample was collected from the ocular venous plexus thereof at 0, 15, 30, 60 and 120 min from the administration, and the glucose concentration and AUC (area under the curve, Skrumsager et al., J Clin Pharmacol. 43, 1244-1256, 2003) were determined.

human PPAR α = target: T1, human PPAR α (Homo sapiens, UniProt Q07869); assay: Exogeneous PPAR α agonist assay (GAL4 DNA binding domain/PPAR α ligand binding domain, luciferase) in 293T cells; type: cell-based; design: scale not given here; settings: 25 μM compound, 48 hours, luciferase activity increase relative to the control
T1 construct: expressed in transfected cells; host or cells: HepG2 (ATCC HB-8065) or 293T cells (ATCC CRL-1573)
T1 sequence (Q07869 239-466 limits assumed): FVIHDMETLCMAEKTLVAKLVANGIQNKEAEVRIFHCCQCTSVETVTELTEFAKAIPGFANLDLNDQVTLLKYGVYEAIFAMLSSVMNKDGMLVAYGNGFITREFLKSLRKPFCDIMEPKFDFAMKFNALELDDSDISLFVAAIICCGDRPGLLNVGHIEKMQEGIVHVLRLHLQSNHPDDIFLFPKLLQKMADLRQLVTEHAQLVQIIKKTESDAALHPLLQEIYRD
Procedure, shortened: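 HepG2 or 293T cells (2×10^4/well) lipofectamine-transfected 3 hours with PPAR α, UAS firefly-luciferase and Renilla-luciferase constructs. Compounds then added at 25 μM final and incubated 48 hours at 37° C. PPAR α activation measured as dual firefly/Renilla luciferase luminescence.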

ob/ob mice [3] = assay: Anti-obesity test: body weight measurement in ob/ob mice; type: in vivo; settings: 100 mg/kg oral twice a day
Protocol: as §1, §2, §3
2) Body Weight Measurement
The average body weight of each group was measured every 3 days after the administration, and the changes in the average body weight and body weight gain (measured body weight—initial body weight) were analyzed.

ob/ob mice [4] = assay: Anti-obesity test: dissection, fat weights in ob/ob mice; type: in vivo; settings: ob/ob mice after completing all tests; for adiposity index (fat weight/(body weight—fat weight)): FIG. 4b; for total fat weight: P<0.01, P<0.005, FIG. 4a
Protocol: as §1, §2, §3
After completing all tests, each of the mice in test treated with the compounds of Examples 5 and 62 and the positive control group treated with fenofibrate was sacrificed, the whole blood, liver, muscle and white adipose tissue thereof were extracted. White adipose tissued was divided into visceral fat and subcutaneous fat, and the amounts of the total fats and liver tissue were weighed separately.

ob/ob mice [5] = assay: Anti-obesity test: feed intake in ob/ob mice; type: in vivo; settings: 100 mg/kg oral twice a day, first week of the test, P<0.005, FIG. 1a
Protocol: as §1, §2, §3
1) General Symptoms and Observation of Dead Animal
The conditions, behavioral changes, addictive symptoms and the death rate were observed constantly during the test period.

| Compound | GLU (glucose) (ob/ob mice [1]) [mg/dL] | HDL (HDL-cholesterol) (ob/ob mice [1]) [mg/dL] | LDL (LDL-cholesterol) (ob/ob mice [1]) [mg/dL] | NEFA (free fatty acid) (ob/ob mice [1]) | TG (triglyceride) (ob/ob mice [1]) [mg/dL] | total changes in the glucose concentration represented by AUC compared to the control group (ob/ob mice [2]) | glucose concentration at 30 and 60 min after the glucose administration compared to the control group (ob/ob mice [2]) | glucose concentration during the fast compared to the control group (ob/ob mice [2]) | Activity at 25 μM Step 1 293T cell (human PPAR α) | GLU concentration compared to the control or positive control group (ob/ob mice [1]) | HDL concentration (ob/ob mice [1]) | weight of subcutaneous fat (ob/ob mice [4]) | weight of visceral fat (ob/ob mice [4]) | adiposity index (fat weight/(body weight—fat weight)) (ob/ob mice [4]) | total fat weight (ob/ob mice [4]) | daily feed intake compared to the control group (ob/ob mice [5]) | other results |
| --- | --- | --- | --- | --- | --- | --- | --- | --- | --- | --- | --- | --- | --- | --- | --- | --- | --- |
| CC(C)OC(=O)C(C)(C)Oc1ccc(C(=O)c2ccc(Cl)cc2)cc1 [fenofibrate, reference compound] | 223.1 ± 77.2 | 280.5 ± 28.5 | 27.0 ± 4.7 | 1,003 ± 80 UEq/l | 49.4 ± 6.1 |  |  |  |  |  |  |  |  |  |  |  |  |
| Cc1ccc(-c2nc(CCOc3cccc(CN(CC(=O)O)S(=O)(=O)N(C)C)c3)c(C)o2)cc1 [Example 62, [N—(N,N-dimethylamino)sulfonyl-N-[3-[2-[2-(4-methylphenyl)-5-methyloxazol-4-yl]ethoxy]benzyl]amino]acetic acid] | 190.4 ± 77.6 | 381.8 ± 40.1 | 37.8 ± 5.2 | 976 ± 238 UEq/l | 37.9 ± 6.6 | much lower | significantly low | significantly low | 2 | much lower | high | reduced | reduced | reduced | low | significantly reduced | triglyceride concentration compared to a control (ob/ob mice [1]; P<0.05): significantly lower; body weight effect compared to the positive control group treated with fenofibrate (ob/ob mice [3]): improved effect; change in the body weight gain compared to the control group (ob/ob mice [3]; at day 7 from the administration, P<0.01): evidently lower; change in the average body weight compared to the control group (ob/ob mice [3]; at day 10 from the administration, P<0.01, P<0.005): markedly reduced |
| Cc1oc(-c2ccc(C(F)(F)F)cc2)nc1CCOc1cccc(CN(CC(=O)O)S(=O)(=O)N(C)C)c1 [Example 65, [N—(N,N-dimethylamino)sulfonyl-N-[3-[2-[2-(4-trifluoromethylphenyl)-5-methyloxazol-4-yl]ethoxy]benzyl]amino]acetic acid] | 158.8 ± 44.0 | 321.4 ± 31.8 | 33.0 ± 9.3 | 1,006 ± 203 UEq/l | 45.9 ± 4.7 | much lower | significantly low | significantly low | 1 | much lower | high |  |  |  |  | significantly reduced |  |
| Cc1oc(-c2ccc(C(F)(F)F)cc2)nc1COc1cccc(CN(CC(=O)O)S(=O)(=O)N(C)C)c1 [Example 5, [N—(N,N-dimethylamino)sulfonyl-N-[3-[[2-(4-trifluoromethylphenyl)-5-methyloxazol-4-yl]methoxy]benzyl]amino]acetic acid] | 218.1 ± 125.5 | 292.1 ± 24.7 | 24.3 ± 4.3 | 880 ± 273 UEq/l | 47.3 ± 12.4 | much lower |  | significantly low | 2 | much lower |  | reduced | reduced | reduced | low | significantly reduced | LDL concentration (ob/ob mice [1]; P<0.05): low |
